In patent US20220323406A1, “METHODS AND COMPOSITIONS FOR DIFFERENTIATING STEM CELLS” (Massachusetts Institute of Technology, priority 2019, published 2022):
Structures can show the parent of a compound that is named as a salt.

Key:
[1] = tested on: ENR+CD organoids (ISC to Paneth cell differentiation); assay: Primary screen: basal (non-stimulated) lysozyme secretion LYZ.NS, 2.5-D 384-well ENR+CD organoid differentiation; assay type: cell-based, mouse
Description: (§1) High-throughput screening.

ENR+CD organoids = assay: Primary screen: ATP (CellTiter-Glo 3D, CTG) cell number/viability, 2.5-D 384-well ENR+CD organoids; details: primary screen; for Z.CTG: standard z score;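 as to all read-outs here: compounds given at plating and again on day 3 over a 6-day differentiation from ENR+CV stem-cell-enriched precursors, ATP measured on day 6, plate median as control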
[2] = tested on: ENR+CD organoids (ISC to Paneth cell differentiation); assay: Primary screen: CCh-stimulated lysozyme secretion LYZ.S, 2.5-D 384-well ENR+CD organoid differentiation; assay type: cell-based, mouse; details: primary screen
Description: as §1

[3] = dose 0.08 uM, FC relative to plate median
[4] = dose 0.40 uM, FC relative to plate median
[5] = dose 2.00 uM, FC relative to plate median
[6] = dose 10.00 uM, FC relative to plate median

SMILES | Dose.FC.LYZ.NS ([1]; primary screen, dose 0.08 uM) [log2 fold change] | Z.LYZ.NS (standard z score) ([1]; primary screen, dose 0.08 uM) | Dose.FC.LYZ.NS ([1]; primary screen, dose 0.40 uM) [log2 fold change] | Z.LYZ.NS (standard z score) ([1]; primary screen, dose 0.40 uM) | Dose.FC.LYZ.NS ([1]; primary screen, dose 2.00 uM) [log2 fold change] | Z.LYZ.NS (standard z score) ([1]; primary screen, dose 2.00 uM) | Dose.FC.LYZ.NS ([1]; primary screen, dose 10.00 uM) [log2 fold change] | Z.LYZ.NS (standard z score) ([1]; primary screen, dose 10.00 uM) | Dose.FC.CTG (ENR+CD organoids; dose 0.08 uM) [log2 fold change] | Dose.FC.CTG (ENR+CD organoids; dose 0.40 uM) [log2 fold change] | Dose.FC.CTG (ENR+CD organoids; dose 2.00 uM) [log2 fold change] | Dose.FC.CTG (ENR+CD organoids; dose 10.00 uM) [log2 fold change] | Dose.FC.LYZ.S ([2]; dose 0.08 uM) [log2 fold change] | Dose.FC.LYZ.S ([2]; dose 0.40 uM) [log2 fold change] | Dose.FC.LYZ.S ([2]; dose 2.00 uM) [log2 fold change] | Dose.FC.LYZ.S ([2]; dose 10.00 uM) [log2 fold change] | also measured
CC(C)OC(=O)OCOP(=O)(CO[C@H](C)Cn1cnc2c(N)ncnc21)OCOC(=O)OC(C)C [Tenofovir Disoproxil Fumarate] | 0.055 | 0.475 | −0.051 | −0.442 | −0.079 | −0.689 | −0.185 | −1.614 | 0.072 | −0.002 | −0.158 | −0.433 | 0.208 | 0.086 | −0.065 | −0.267 | –
CCOc1ccccc1-n1c(C(C)N2CCN(C(=O)COc3ccc(Cl)cc3)CC2)nc2ccccc2c1=O (stereo not drawn) [Erastin] | 0.157 | – | 0.158 | – | 0.157 | – | −0.015 | – | 0.225 | 0.285 | 0.380 | 0.298 | 0.170 | 0.160 | 0.106 | 0.039 | Z.LYZ.NS ([1]; primary screen, standard z score, dose 0.08 uM): 1.368; Z.LYZ.NS ([1]; primary screen, standard z score, dose 0.40 uM): 1.375; Z.LYZ.NS ([1]; primary screen, standard z score, dose 2.00 uM): 1.367; Z.LYZ.NS ([1]; primary screen, standard z score, dose 10.00 uM): −0.133
Cc1cc(NC(=O)Nc2ccc(N(C)C)cc2)c2cc(F)cc(F)c2n1 [SB408124] | – | – | – | – | – | – | – | – | – | – | – | – | – | – | – | – | Dose.FC.LYZ.NS ([1]; primary screen, dose 0.08 uM, FC relative to plate median): 0.172 log2 fold change; Z.LYZ.NS ([1]; primary screen, dose 0.08 uM, standard z score): 1.494; Dose.FC.LYZ.NS ([1]; primary screen, dose 0.40 uM, FC relative to plate median): 0.134 log2 fold change; Z.LYZ.NS ([1]; primary screen, dose 0.40 uM, standard z score): 1.168; Dose.FC.LYZ.NS ([1]; primary screen, dose 2.00 uM, FC relative to plate median): 0.084 log2 fold change; Z.LYZ.NS ([1]; primary screen, dose 2.00 uM, standard z score): 0.730; Dose.FC.LYZ.NS ([1]; primary screen, dose 10.00 uM, FC relative to plate median): −0.070 log2 fold change; Z.LYZ.NS ([1]; primary screen, dose 10.00 uM, standard z score): −0.607; Dose.FC.CTG (ENR+CD organoids; [3]): 0.410 log2 fold change; Z.CTG (ENR+CD organoids; dose 0.08 uM): 0.978; Dose.FC.CTG (ENR+CD organoids; [4]): 0.334 log2 fold change; Z.CTG (ENR+CD organoids; dose 0.40 uM): 0.799; Dose.FC.CTG (ENR+CD organoids; [5]): 0.364 log2 fold change; Z.CTG (ENR+CD organoids; dose 2.00 uM): 0.869; Dose.FC.CTG (ENR+CD organoids; [6]): 0.091 log2 fold change; Z.CTG (ENR+CD organoids; dose 10.00 uM): 0.216; Dose.FC.LYZ.S [2, 3]: 0.198 log2 fold change; Dose.FC.LYZ.S [2, 4]: 0.193 log2 fold change; Dose.FC.LYZ.S [2, 5]: 0.082 log2 fold change; Dose.FC.LYZ.S [2, 6]: −0.148 log2 fold change
Oc1nc(-c2ccc(C(F)(F)F)cc2)nc2c1CSCC2 [XAV-939] | 0.058 | 0.505 | 0.020 | 0.177 | −0.044 | −0.386 | −0.131 | −1.142 | −0.332 | −0.027 | −0.355 | −0.899 | 0.074 | 0.085 | −0.068 | −0.231 | –
COc1ccc2c(c1)C(=O)N(CCc1ccc(S(=O)(=O)NC(=O)NC3CCCCC3)cc1)C(=O)C2(C)C [Gliquidone] | – | 0.893 | – | 0.322 | – | 0.747 | – | 0.268 | – | – | – | – | – | – | – | – | Dose.FC.LYZ.NS (log2 fold change) ([1]; primary screen, dose 0.08 uM): 0.103; Dose.FC.LYZ.NS (log2 fold change) ([1]; primary screen, dose 0.40 uM): 0.037; Dose.FC.LYZ.NS (log2 fold change) ([1]; primary screen, dose 2.00 uM): 0.086; Dose.FC.LYZ.NS (log2 fold change) ([1]; primary screen, dose 10.00 uM): 0.031; Dose.FC.CTG (log2 fold change) (ENR+CD organoids; dose 0.08 uM): 0.124; Dose.FC.CTG (log2 fold change) (ENR+CD organoids; dose 0.40 uM): 0.103; Dose.FC.CTG (log2 fold change) (ENR+CD organoids; dose 2.00 uM): 0.246; Dose.FC.CTG (log2 fold change) (ENR+CD organoids; dose 10.00 uM): 0.134; Dose.FC.LYZ.S (log2 fold change) ([2]; dose 0.08 uM): 0.101; Dose.FC.LYZ.S (log2 fold change) ([2]; dose 0.40 uM): 0.070; Dose.FC.LYZ.S (log2 fold change) ([2]; dose 2.00 uM): 0.006; Dose.FC.LYZ.S (log2 fold change) ([2]; dose 10.00 uM): −0.020
